{
  "source": "patent US9085561B2",
  "about": "“Cyclic urea- or lactam-substituted quinoxaline-type piperidines as ORL-1 modulators” (priority 2012, dated 2015)",
  "data": [
    {"target": "human CYP2D6 (Homo sapiens, UniProt P10635)", "sequence (P10635 whole entry)": "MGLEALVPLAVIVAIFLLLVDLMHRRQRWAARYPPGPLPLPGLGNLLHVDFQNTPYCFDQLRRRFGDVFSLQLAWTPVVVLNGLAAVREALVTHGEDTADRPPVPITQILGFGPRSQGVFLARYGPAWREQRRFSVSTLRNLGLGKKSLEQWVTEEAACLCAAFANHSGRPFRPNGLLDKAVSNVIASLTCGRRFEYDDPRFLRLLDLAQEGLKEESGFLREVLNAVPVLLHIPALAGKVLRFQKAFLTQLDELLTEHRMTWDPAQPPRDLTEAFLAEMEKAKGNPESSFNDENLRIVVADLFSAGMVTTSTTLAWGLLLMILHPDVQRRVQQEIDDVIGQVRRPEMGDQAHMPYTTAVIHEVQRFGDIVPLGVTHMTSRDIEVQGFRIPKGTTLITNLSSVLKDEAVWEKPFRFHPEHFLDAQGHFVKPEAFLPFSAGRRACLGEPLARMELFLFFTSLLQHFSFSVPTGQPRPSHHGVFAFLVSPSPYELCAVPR", "assay": "Cytochrome P450 2D6 inhibition (dextromethorphan O-demethylation, pooled human hepatic microsome)", "units": {"IC50": "µM"}, "values": [
      {"smiles": "Nc1nc(=O)n(-c2nc3ccccc3n([C@H]3C[C@H]4CCC[C@@H](C3)N4[C@H]3C[C@@H]4CCC[C@@H](C4)C3)c2=O)cc1F", "note": "[B7a(i), 1-((1R,1′R,3r,3′R,5S,5′S)-[3,9′-bi(9′-azabicyclo[3.3.1]nonan)]-3′-yl)-3-(4-amino-5-fluoro-2-oxopyrimidin-1(2H)-yl)quinoxalin-2(1H)-one]", "IC50": "> 20"},
      {"smiles": "O=C(O)Cn1c(-c2nc3ccccc3n([C@H]3C[C@H]4CCC[C@@H](C3)N4C3CCCCCCCCC3)c2=O)cccc1=O", "note": "[BB1c(iii), 2-(6-(4-((1R,3r,5S)-9-cyclodecyl-9-azabicyclo[3.3.1]nonan-3-yl)-3-oxo-3,4-dihydroquinoxalin-2-yl)-2-oxopyridin-1(2H)-yl)acetic acid]", "IC50": "> 20"},
      {"smiles": "O=c1c(N2CCNCC2)nc2ccccc2n1C1CCN(C2CCCCCCC2)CC1", "note": "[CC10, reference compound]", "IC50": "< 1"},
      {"smiles": "O=C1CN(c2nc3ccccc3n(C3CCN(C4CCCCCCC4)CC3)c2=O)CCN1", "note": "[CC18, reference compound]", "IC50": "< 1"},
      {"smiles": "NC1CCN(c2nc3ccccc3n(C3CCN(C4CCCCCCC4)CC3)c2=O)CC1", "note": "[CC22, reference compound]", "IC50": 1},
      {"smiles": "N[C@H]1CCN(c2nc3ccccc3n(C3CCN(C4CCCCCCC4)CC3)c2=O)C1", "note": "[CC39, reference compound]", "IC50": "< 1"},
      {"smiles": "N[C@@H]1CCN(c2nc3ccccc3n(C3CCN(C4CCCCCCC4)CC3)c2=O)C1", "note": "[CC51, reference compound]", "IC50": "< 1"},
      {"smiles": "N[C@@H]1CCN(c2nc3ccccc3n([C@H]3C[C@H]4CC[C@@H](C3)N4C3CCCCCCC3)c2=O)C1", "note": "[CC101, reference compound]", "IC50": "< 1"},
      {"smiles": "O=C1CCN(c2nc3ccccc3n(C3CCN(C4CCCCCCC4)CC3)c2=O)N1", "note": "[CC119, reference compound]", "IC50": "> 20"},
      {"smiles": "O=C(O)CN1CCN(c2nc3ccccc3n([C@H]3C[C@H]4CC[C@@H](C3)N4C3CCCCCCC3)c2=O)CC1", "note": "[CC337, reference compound]", "IC50": 13},
      {"smiles": "O=c1[nH]c(=O)n(-c2nc3ccccc3n([C@H]3C[C@H]4CCC[C@@H](C3)N4[C@H]3C[C@@H]4CCC[C@@H](C4)C3)c2=O)cc1Br", "note": "[Compound B16a, 1-(4-((1R,1′R,3r,3R,5S,5′S)-[3,9′-bi(9′-azabicyclo[3.3.1]nonan)]-3′-yl)-3-oxo-3,4-dihydroquinoxalin-2-yl)-5-bromopyrimidine-2,4(1H,3H)-dione]", "IC50": "> 20"},
      {"smiles": "C[C@@H]1C[C@@H]2C[C@H](C1)C[C@@H](N1[C@@H]3CCC[C@H]1C[C@@H](n1c(=O)c(-n4ncc(=O)[nH]c4=O)nc4ccccc41)C3)C2", "note": "[Compound B34a, 2-(4-((1R,1′R,3r,3′R,5S,5′S,7S)-7-methyl-[3,9′-bi(9′-azabicyclo[3.3.1]nonan)]-3′-yl)-3-oxo-3,4-dihydroquinoxalin-2-yl)-1,2,4-triazine-3,5(2H,4H)-dione]", "IC50": "> 20"},
      {"smiles": "C[C@@H]1C[C@@H]2C[C@H](C1)C[C@@H](N1[C@@H]3CCC[C@H]1C[C@@H](n1c(=O)c(N4C(=O)NC(C)(C)C4=O)nc4ccccc41)C3)C2", "note": "[Compound B47a]", "IC50": "> 20"},
      {"smiles": "O=c1cnn(-c2nc3ccccc3n([C@H]3C[C@H]4CC[C@@H](C3)N4[C@@H]3C[C@@H]4CCCC[C@@H](C4)C3)c2=O)c(=O)[nH]1", "note": "[Compound N9b, 2-(4-((1R,3R,5S)-8-((1R,6S,8s)-bicyclo[4.3.1]decan-8-yl)-8-azabicyclo[3.2.1]octan-3-yl)-3-oxo-3,4-dihydroquinoxalin-2-yl)-1,2,4-triazine-3,5(2H,4H)-dione]", "IC50": "> 20"},
      {"smiles": "Cc1nn(-c2nc3ccccc3n([C@H]3C[C@H]4CCC[C@@H](C3)N4[C@@H]3C[C@@H]4CCCC[C@@H](C4)C3)c2=O)c(=O)[nH]c1=O", "note": "[Compound O10b, 2-(4-((1R,3R,5 S)-9-((1R,6S,8s)-bicyclo[4.3.1]decan-8-yl)-9-azabicyclo[3.3.1]nonan-3-yl)-3-oxo-3,4-dihydroquinoxalin-2-yl)-6-methyl-1,2,4-triazine-3,5(2H,4H)-dione]", "IC50": "> 20"},
      {"smiles": "CC1(C)NC(=O)N(c2nc3ccccc3n([C@H]3C[C@H]4CCC[C@@H](C3)N4[C@@H]3C[C@@H]4CCCC[C@@H](C4)C3)c2=O)C1=O", "note": "[Compound O22b, 3-(4-((1R,3R,5S)-9-((1R,6S,8s)-bicyclo[4.3.1]decan-8-yl)-9-azabicyclo[3.3.1]nonan-3-yl)-3-oxo-3,4-dihydroquinoxalin-2-yl)-5,5-dimethylimidazolidine-2,4-dione]", "IC50": "> 20"},
      {"smiles": "O=C(O)Cn1cc(-c2nc3ccccc3n([C@H]3C[C@H]4CCC[C@@H](C3)N4[C@H]3C[C@@H]4CCC[C@@H](C4)C3)c2=O)ccc1=O", "note": "[Compound U007, 2-(5-(4-((1R,1′R,3r,3′R,5S,5′S)-[3,9′-bi(9′-azabicyclo[3.3.1]nonan)]-3′-yl)-3-oxo-3,4-dihydroquinoxalin-2-yl)-2-oxopyridin-1(2H)-yl)acetic acid]", "IC50": "> 20"},
      {"smiles": "O=C(O)Cn1ccc(-c2nc3ccccc3n([C@H]3C[C@H]4CCC[C@@H](C3)N4[C@H]3C[C@@H]4CCC[C@@H](C4)C3)c2=O)cc1=O", "note": "[Compound U010, 2-(4-(4-((1R,1′R,3r,3R,5S,5′S)-[3,9′-bi(9′-azabicyclo[3.3.1]nonan)]-3′-yl)-3-oxo-3,4-dihydroquinoxalin-2-yl)-2-oxopyridin-1(2H)-yl)acetic acid]", "IC50": "> 20"},
      {"smiles": "O=C(O)c1cc(-c2nc3ccccc3n([C@H]3C[C@H]4CCC[C@@H](C3)N4[C@@H]3C[C@@H]4CCCC[C@@H](C4)C3)c2=O)c[nH]c1=O", "note": "[Compound U043, 5-(4-((1R,3R,5S)-9-((1R,6S,8s)-bicyclo[4.3.1]decan-8-yl)-9-azabicyclo[3.3.1]nonan-3-yl)-3-oxo-3,4-dihydroquinoxalin-2-yl)-2-oxo-1,2-dihydropyridine-3-carboxylic acid]", "IC50": "> 20"},
      {"smiles": "C[C@@H]1C[C@@H]2C[C@H](C1)C[C@@H](N1[C@@H]3CCC[C@H]1C[C@@H](n1c(=O)c(-c4c[nH]c(=O)cn4)nc4ccccc41)C3)C2", "note": "[Compound U052, 1-((1R,1′R,3r,3′R,5S,5′S,7S)-7-methyl-[3,9′-bi(9′-azabicyclo[3.3.1]nonan)]-3′-yl)-3-(5-oxo-4,5-dihydropyrazin-2-yl)quinoxalin-2(1H)-one]", "IC50": "> 20"},
      {"smiles": "C[C@@H]1C[C@@H]2C[C@H](C1)C[C@@H](N1[C@@H]3CCC[C@H]1C[C@@H](n1c(=O)c(-c4ccc(=O)[nH]c4)nc4ccccc41)C3)C2", "note": "[Compound U060, 1-((1R,1′R,3r,3′R,5S,5′S,7S)-7-methyl-[3,9′-bi(9′-azabicyclo[3.3.1]nonan)]-3′-yl)-3-(6-oxo-1,6-dihydropyridin-3-yl)quinoxalin-2(1H)-one]", "IC50": "> 20"},
      {"smiles": "C[C@@H]1C[C@@H]2C[C@H](C1)C[C@@H](N1[C@@H]3CCC[C@H]1C[C@@H](n1c(=O)c(-c4c[nH]c(=O)c(C(N)=O)c4)nc4ccccc41)C3)C2", "note": "[Compound U063, 5-(4-((1R,1′R,3r,3′R,5S,5′S,7S)-7-methyl-[3,9′-bi(9′-azabicyclo[3.3.1]nonan)]-3′-yl)-3-oxo-3,4-dihydroquinoxalin-2-yl)-2-oxo-1,2-dihydropyridine-3-carboxamide]", "IC50": 7.2},
      {"smiles": "C[C@@H]1C[C@@H]2C[C@H](C1)C[C@@H](N1[C@@H]3CCC[C@H]1C[C@@H](n1c(=O)c(-c4c[nH]c(=O)c(C(=O)O)c4)nc4ccccc41)C3)C2", "note": "[Compound U064, 5-(4-((1R,1′R,3r,3′R,5S,5′S,7S)-7-methyl-[3,9′-bi(9′-azabicyclo[3.3.1]nonan)]-3′-yl)-3-oxo-3,4-dihydroquinoxalin-2-yl)-2-oxo-1,2-dihydropyridine-3-carboxylic acid]", "IC50": "> 20"}
    ]}
  ]
}
